Source: ChEMBL document CHEMBL3621190, “Fused Morphlinopyrimidines and Methods of Use Thereof” (ACS Med Chem Lett, 2015)

target: Gamma-secretase; assay: Inhibition of gamma-secretase in human H4 cells expressing human wild type […] cDNA assessed as reduction in amyloid beta peptides incubated for 16 to 18 hrs by ELISA method; assay type: cell-based

How did the IC50 turn out when Cc1ccccc1N1CCOc2cnc(NC3CCN(c4ccnc(Cl)c4)CC3)nc21 was run?
The IC50 was 90 nM.

Which IC50 does the source give for COc1cc(N2CCC(Nc3ncc4c(n3)N(c3cc(F)cc(F)c3)CCO4)CC2)ccn1 here?
Its IC50 is 25.6 nM.

With COc1cc(N2CCC(Nc3ncc4c(n3)N(c3ccccc3)CCO4)CC2)ccn1 as the compound, how does the IC50 read?
The IC50 was 25.2 nM.

With Clc1cc(N2CCC(Nc3ncc4c(n3)N(c3ccccc3)CCO4)CC2)ccn1 as the compound, how does the IC50 read?
Its IC50 is 54.3 nM.

How did the IC50 turn out when COc1cc(N2CCC(Nc3ncc4c(n3)N(c3ccccc3C)CCO4)CC2)ccn1 was run?
Its IC50 is 58.5 nM.

COc1cc(N2CCC(Nc3ncc4c(n3)N(c3ccccc3Cl)CCO4)CC2)ccn1 was tested. Which IC50 did it give?
Its IC50 is 54.8 nM.

For COc1cc(N2CCC(Nc3ncc4c(n3)N(c3ccccc3OC(F)(F)F)CCO4)CC2)ccn1, which IC50 is on record?
The IC50 was 20.8 nM.

With COc1cc(N2CCC(Nc3ncc4c(n3)N(c3cc(F)c(F)c(F)c3)CCO4)CC2)ccn1 as the compound, how does the IC50 read?
Its IC50 is 56 nM.

With COc1cc(N2CCC(Nc3ncc4c(n3)N(c3ccc(F)cc3F)CCO4)CC2)ccn1 as the compound, how does the IC50 read?
The IC50 was 72.4 nM.

Which IC50 does the source give for COc1cc(N2CCC(Nc3ncc4c(n3)N(c3ccc(Cl)cc3)CCO4)CC2)ccn1 here?
Its IC50 is 25.4 nM.

For COc1cc(N2CCC(Nc3ncc4c(n3)N(c3ccc(F)cc3C(F)(F)F)CCO4)CC2)ccn1, which IC50 is on record?
The IC50 was 11.9 nM.

Which IC50 does the source give for COc1cc(N2CCC(Nc3ncc4c(n3)N(c3ccc(F)cc3)CCO4)CC2)ccn1 here?
The IC50 was 30.5 nM.
